Measurements: ChEMBL document CHEMBL4507259 (2021)

Legend:
[1] = molecular target: Estrogen receptor (Homo sapiens) (UniProt P03372); assay: Estrogen ER alpha (h) CEREP ligand profiling; details: filed as agonist, Compound concentration 10.0 uM
[2] = molecular target: T1, 5-hydroxytryptamine receptor 3A (Homo sapiens) (UniProt P46098); assay: 5-HT3 (h) CEREP ligand profiling; details: filed as antagonist, Compound concentration 10.0 uM
T1 sequence (whole entry): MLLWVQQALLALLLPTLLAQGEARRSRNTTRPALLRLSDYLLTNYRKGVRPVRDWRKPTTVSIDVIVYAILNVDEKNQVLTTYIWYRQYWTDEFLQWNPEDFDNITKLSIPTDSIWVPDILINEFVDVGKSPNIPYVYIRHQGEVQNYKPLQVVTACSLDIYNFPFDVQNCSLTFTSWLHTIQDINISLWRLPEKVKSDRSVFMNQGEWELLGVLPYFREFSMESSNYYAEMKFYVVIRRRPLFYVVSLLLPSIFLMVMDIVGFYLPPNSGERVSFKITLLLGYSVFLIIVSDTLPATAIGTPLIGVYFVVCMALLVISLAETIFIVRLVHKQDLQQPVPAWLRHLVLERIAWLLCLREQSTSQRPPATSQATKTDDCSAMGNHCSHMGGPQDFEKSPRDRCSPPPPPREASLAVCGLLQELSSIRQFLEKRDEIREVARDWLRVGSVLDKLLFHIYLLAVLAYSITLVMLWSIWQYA

[3] = molecular target: Sigma non-opioid intracellular receptor 1 (Homo sapiens) (UniProt Q99720); assay: sigma (non-selective) (h) CEREP ligand profiling; details: filed as agonist, Compound concentration 10.0 uM
[4] = molecular target: Androgen receptor (Homo sapiens) (UniProt P10275); assay: AR (h) CEREP ligand profiling; details: filed as agonist, Compound concentration 10.0 uM
[5] = tested on: Tyrosine-protein kinase ABL1 (Homo sapiens), P00519 [F317I]; details: Compound concentration 1000.0 nM
[6] = tested on: Tyrosine-protein kinase ABL1 (Homo sapiens), P00519 [H396P]; details: Compound concentration 1000.0 nM
[7] = tested on: Tyrosine-protein kinase ABL1 (Homo sapiens), P00519 [T315I]; details: Compound concentration 1000.0 nM
[8] = tested on: ALK tyrosine kinase receptor (Homo sapiens), Q9UM73 [L1196M]; details: Compound concentration 1000.0 nM
[9] = molecular target: BMP-2-inducible protein kinase (Homo sapiens) (UniProt Q9NSY1); details: Compound concentration 1000.0 nM
[10] = molecular target: Cyclin-dependent kinase 11A (Homo sapiens) (UniProt Q9UQ88); details: Compound concentration 1000.0 nM
[11] = molecular target: Citron Rho-interacting kinase (Homo sapiens) (UniProt O14578); details: Compound concentration 1000.0 nM
[12] = molecular target: Dual specificity protein kinase CLK1 (Homo sapiens) (UniProt P49759); details: Compound concentration 1000.0 nM
[13] = molecular target: Serine/threonine-protein kinase 17A (Homo sapiens) (UniProt Q9UEE5); details: Compound concentration 1000.0 nM
[14] = molecular target: Tyrosine-protein kinase Fer (Homo sapiens) (UniProt P16591); details: Compound concentration 1000.0 nM
[15] = molecular target: G protein-coupled receptor kinase 3 (Homo sapiens) (UniProt P35626); details: Compound concentration 1000.0 nM
[16] = molecular target: Insulin receptor (Homo sapiens) (UniProt P06213); details: Compound concentration 1000.0 nM
[17] = molecular target: Tyrosine-protein kinase JAK3 (Homo sapiens) (UniProt P52333); details: Compound concentration 1000.0 nM
[18] = molecular target: Mast/stem cell growth factor receptor Kit (Homo sapiens) (UniProt P10721); details: Compound concentration 1000.0 nM
[19] = molecular target: Dual specificity mitogen-activated protein kinase kinase 2 (Homo sapiens) (UniProt P36507); details: Compound concentration 1000.0 nM
[20] = molecular target: Dual specificity mitogen-activated protein kinase kinase 5 (Homo sapiens) (UniProt Q13163); details: Compound concentration 1000.0 nM
[21] = molecular target: Serine/threonine-protein kinase Nek5 (Homo sapiens) (UniProt Q6P3R8); details: Compound concentration 1000.0 nM
[22] = molecular target: Serine/threonine-protein kinase Nek6 (Homo sapiens) (UniProt Q9HC98); details: Compound concentration 1000.0 nM
[23] = molecular target: Serine/threonine-protein kinase pim-2 (Homo sapiens) (UniProt Q9P1W9); details: Compound concentration 1000.0 nM
[24] = molecular target: Protein-tyrosine kinase 2-beta (Homo sapiens) (UniProt Q14289); details: Compound concentration 1000.0 nM
[25] = molecular target: Serine/threonine-protein kinase SIK3 (Homo sapiens) (UniProt Q9Y2K2); details: Compound concentration 1000.0 nM
[26] = molecular target: Receptor-interacting serine/threonine-protein kinase 1 (Homo sapiens) (UniProt Q13546); details: Compound concentration 1000.0 nM
[27] = molecular target: Ribosomal protein S6 kinase alpha-4 (Homo sapiens) (UniProt O75676); details: Compound concentration 1000.0 nM
[28] = molecular target: Ribosomal protein S6 kinase alpha-3 (Homo sapiens) (UniProt P51812); details: Compound concentration 1000.0 nM
[29] = molecular target: Serine/threonine-protein kinase Sgk2 (Homo sapiens) (UniProt Q9HBY8); details: Compound concentration 1000.0 nM
[30] = molecular target: Tyrosine-protein kinase Srms (Homo sapiens) (UniProt Q9H3Y6); details: Compound concentration 1000.0 nM
[31] = molecular target: SRSF protein kinase 3 (Homo sapiens) (UniProt Q9UPE1); details: Compound concentration 1000.0 nM
[32] = molecular target: TGF-beta receptor type-1 (Homo sapiens) (UniProt P36897); details: Compound concentration 1000.0 nM
[33] = molecular target: T2, Alpha-2B adrenergic receptor (Homo sapiens) (UniProt P18089); details: Compound concentration 10.0 uM
T2 sequence (whole entry): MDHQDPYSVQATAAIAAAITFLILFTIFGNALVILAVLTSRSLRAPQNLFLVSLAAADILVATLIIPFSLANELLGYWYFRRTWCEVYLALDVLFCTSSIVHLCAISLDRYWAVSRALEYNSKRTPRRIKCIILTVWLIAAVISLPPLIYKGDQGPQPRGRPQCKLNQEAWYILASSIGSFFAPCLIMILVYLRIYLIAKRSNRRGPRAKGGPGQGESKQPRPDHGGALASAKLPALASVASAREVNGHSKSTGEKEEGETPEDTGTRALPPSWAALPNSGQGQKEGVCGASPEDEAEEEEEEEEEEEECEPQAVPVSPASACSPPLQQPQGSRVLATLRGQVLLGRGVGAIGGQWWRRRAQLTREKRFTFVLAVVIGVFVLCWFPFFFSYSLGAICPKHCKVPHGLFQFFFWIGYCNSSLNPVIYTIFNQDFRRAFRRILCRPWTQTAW

BMP-2-inducible protein kinase (Homo sapiens), sequence (Q9NSY1 whole entry, looked up): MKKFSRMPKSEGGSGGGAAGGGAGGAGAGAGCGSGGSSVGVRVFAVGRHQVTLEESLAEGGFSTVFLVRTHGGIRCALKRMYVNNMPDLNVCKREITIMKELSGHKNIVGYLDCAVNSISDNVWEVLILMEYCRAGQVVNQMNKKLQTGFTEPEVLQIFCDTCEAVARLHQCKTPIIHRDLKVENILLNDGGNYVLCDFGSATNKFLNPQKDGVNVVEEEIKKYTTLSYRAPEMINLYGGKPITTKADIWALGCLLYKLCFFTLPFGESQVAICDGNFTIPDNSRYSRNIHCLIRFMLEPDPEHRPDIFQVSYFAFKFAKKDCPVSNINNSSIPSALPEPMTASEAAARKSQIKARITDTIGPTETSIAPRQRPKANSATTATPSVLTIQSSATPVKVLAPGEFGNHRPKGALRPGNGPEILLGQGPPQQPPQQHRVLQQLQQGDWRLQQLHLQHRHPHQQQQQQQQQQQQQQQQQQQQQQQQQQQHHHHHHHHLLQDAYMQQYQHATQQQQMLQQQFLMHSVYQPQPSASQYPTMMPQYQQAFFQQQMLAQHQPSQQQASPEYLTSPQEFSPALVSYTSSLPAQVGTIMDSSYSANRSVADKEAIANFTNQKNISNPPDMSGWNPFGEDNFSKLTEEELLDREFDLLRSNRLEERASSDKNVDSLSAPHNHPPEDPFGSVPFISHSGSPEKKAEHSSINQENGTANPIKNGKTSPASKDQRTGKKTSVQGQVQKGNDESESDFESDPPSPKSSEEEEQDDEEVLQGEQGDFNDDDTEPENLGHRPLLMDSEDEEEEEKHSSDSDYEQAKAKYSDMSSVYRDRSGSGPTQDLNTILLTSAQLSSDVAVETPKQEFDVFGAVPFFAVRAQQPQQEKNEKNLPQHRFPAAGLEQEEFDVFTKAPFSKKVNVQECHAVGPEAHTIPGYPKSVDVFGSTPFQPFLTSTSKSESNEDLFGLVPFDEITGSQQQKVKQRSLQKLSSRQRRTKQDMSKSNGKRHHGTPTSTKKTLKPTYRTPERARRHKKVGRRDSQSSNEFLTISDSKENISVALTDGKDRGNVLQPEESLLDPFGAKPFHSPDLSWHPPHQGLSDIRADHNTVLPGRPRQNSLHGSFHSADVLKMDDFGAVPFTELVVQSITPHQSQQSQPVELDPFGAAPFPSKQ
Dual specificity mitogen-activated protein kinase kinase 5 (Homo sapiens), sequence (Q13163 whole entry): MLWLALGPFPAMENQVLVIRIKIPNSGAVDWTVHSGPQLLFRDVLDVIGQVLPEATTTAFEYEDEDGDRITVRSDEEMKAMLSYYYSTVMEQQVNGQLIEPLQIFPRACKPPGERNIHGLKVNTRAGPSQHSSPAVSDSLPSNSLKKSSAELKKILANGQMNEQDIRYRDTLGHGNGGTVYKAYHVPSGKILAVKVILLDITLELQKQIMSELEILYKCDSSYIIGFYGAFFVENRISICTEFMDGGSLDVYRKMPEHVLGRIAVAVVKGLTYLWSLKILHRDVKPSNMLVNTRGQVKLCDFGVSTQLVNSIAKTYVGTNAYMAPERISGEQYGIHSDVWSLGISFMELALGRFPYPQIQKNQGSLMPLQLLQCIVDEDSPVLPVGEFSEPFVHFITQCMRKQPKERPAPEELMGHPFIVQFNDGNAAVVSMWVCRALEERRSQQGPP
Ribosomal protein S6 kinase alpha-4 (Homo sapiens), sequence (O75676 whole entry, looked up): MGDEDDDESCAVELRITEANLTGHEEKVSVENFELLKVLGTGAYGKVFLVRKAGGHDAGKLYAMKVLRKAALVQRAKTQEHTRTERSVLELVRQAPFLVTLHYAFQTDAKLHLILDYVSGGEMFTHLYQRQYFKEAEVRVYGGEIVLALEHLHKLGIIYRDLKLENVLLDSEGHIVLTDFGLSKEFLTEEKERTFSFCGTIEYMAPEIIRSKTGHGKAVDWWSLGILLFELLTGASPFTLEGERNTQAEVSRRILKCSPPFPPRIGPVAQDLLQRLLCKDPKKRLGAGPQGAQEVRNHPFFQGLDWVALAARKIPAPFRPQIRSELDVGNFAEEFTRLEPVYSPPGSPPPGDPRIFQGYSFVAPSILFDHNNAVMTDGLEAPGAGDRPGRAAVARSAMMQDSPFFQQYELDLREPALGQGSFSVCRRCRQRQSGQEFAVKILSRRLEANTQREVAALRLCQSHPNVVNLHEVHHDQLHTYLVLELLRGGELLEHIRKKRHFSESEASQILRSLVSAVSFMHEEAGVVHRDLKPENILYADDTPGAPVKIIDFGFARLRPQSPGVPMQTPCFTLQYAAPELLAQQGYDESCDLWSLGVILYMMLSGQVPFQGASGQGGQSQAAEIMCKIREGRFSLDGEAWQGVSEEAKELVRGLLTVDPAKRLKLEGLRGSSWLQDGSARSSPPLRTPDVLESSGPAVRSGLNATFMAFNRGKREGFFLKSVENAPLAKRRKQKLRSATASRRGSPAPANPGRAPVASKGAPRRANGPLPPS
TGF-beta receptor type-1 (Homo sapiens), sequence (P36897 whole entry): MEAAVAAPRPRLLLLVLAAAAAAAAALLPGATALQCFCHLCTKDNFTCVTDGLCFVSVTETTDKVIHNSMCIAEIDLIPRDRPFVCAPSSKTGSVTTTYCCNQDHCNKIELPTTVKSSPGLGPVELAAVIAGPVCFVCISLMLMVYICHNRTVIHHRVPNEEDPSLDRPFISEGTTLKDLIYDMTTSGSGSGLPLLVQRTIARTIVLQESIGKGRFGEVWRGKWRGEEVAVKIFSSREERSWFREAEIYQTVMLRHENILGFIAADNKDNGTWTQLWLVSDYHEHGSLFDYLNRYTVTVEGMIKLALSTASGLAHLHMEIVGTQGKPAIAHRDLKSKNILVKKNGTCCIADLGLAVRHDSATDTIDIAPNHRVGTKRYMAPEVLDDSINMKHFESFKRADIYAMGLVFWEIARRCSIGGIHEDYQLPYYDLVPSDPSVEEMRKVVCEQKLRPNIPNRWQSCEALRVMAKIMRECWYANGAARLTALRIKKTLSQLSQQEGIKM
Dual specificity protein kinase CLK1 (Homo sapiens), sequence (P49759 whole entry, looked up): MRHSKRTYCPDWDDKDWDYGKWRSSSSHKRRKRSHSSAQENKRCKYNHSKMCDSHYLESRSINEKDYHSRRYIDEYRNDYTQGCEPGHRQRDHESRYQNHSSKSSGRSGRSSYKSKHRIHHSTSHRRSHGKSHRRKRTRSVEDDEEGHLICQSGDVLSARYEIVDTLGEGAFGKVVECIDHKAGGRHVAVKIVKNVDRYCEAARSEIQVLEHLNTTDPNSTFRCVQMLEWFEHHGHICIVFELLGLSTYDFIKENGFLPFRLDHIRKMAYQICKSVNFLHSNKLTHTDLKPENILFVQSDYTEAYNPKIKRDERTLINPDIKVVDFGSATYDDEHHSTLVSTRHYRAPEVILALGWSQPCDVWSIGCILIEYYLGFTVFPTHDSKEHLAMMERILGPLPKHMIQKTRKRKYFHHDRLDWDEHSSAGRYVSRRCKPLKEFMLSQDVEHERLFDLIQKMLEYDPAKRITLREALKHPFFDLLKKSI
Serine/threonine-protein kinase Sgk2 (Homo sapiens), sequence (Q9HBY8 whole entry): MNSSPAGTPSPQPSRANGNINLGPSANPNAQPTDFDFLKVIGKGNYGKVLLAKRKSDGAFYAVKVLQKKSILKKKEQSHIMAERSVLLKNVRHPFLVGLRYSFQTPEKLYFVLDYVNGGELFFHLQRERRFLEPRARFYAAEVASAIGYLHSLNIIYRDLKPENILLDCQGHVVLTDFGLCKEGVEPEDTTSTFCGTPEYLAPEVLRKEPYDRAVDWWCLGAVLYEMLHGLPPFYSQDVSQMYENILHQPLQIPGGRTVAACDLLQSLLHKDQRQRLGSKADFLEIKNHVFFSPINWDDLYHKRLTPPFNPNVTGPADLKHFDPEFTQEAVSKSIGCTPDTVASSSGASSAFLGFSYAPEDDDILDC
Tyrosine-protein kinase Fer (Homo sapiens), sequence (P16591 whole entry, looked up): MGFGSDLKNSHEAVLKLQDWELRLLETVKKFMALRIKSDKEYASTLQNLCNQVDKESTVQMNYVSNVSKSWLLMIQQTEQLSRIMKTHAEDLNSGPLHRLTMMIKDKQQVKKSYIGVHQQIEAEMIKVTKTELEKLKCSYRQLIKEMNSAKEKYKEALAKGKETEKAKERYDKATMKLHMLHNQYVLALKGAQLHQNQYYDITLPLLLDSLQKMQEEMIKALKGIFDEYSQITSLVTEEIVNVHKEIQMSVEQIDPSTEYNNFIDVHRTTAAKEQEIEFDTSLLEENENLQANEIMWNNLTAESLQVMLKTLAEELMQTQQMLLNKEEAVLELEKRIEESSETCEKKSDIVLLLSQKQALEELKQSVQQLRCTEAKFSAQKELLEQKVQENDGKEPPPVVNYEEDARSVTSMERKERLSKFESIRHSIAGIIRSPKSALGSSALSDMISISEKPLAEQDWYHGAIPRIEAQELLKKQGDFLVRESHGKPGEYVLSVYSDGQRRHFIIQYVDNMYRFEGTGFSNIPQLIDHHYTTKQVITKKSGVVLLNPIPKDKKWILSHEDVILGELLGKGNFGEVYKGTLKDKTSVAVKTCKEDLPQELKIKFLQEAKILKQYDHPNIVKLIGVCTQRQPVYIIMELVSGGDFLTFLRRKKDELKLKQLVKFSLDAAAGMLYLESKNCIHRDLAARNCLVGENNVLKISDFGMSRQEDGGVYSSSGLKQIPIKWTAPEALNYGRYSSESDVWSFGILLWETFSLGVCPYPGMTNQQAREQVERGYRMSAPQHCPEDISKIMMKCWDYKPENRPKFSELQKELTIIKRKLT
Serine/threonine-protein kinase 17A (Homo sapiens), sequence (Q9UEE5 whole entry): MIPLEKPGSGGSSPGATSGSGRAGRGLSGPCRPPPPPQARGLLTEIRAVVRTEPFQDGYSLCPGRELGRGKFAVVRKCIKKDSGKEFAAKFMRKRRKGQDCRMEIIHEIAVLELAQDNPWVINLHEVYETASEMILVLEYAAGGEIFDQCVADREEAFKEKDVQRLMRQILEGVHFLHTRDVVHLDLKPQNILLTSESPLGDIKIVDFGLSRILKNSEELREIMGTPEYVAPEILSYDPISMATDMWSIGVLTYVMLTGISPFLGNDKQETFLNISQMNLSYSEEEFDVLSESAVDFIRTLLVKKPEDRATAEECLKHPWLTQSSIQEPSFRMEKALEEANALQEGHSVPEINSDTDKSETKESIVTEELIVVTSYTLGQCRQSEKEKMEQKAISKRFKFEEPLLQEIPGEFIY

CNC(=O)Nc1ccc2c(c1)CC[C@@]21OC(=O)N(CC(=O)N(Cc2ccc(F)cc2)[C@@H](C)C(F)(F)F)C1=O [A-485]
inactive: inhibition [1] 5% | inhibition [2] 0% | inhibition [3] -3% | inhibition [4] -4% | residual activity [5] 87% | residual activity [6] 74% | residual activity [7] 78% | residual activity [8] 75% | residual activity [9] 98% | residual activity [10] 83% | residual activity [11] 92% | residual activity [12] 69% | residual activity [13] 100% | residual activity [14] 87% | residual activity [15] 100% | residual activity [16] 81% | residual activity [17] 73% | residual activity [18] 100% | residual activity [19] 96% | residual activity [20] 83% | residual activity [21] 100% | residual activity [22] 86% | residual activity [23] 98% | residual activity [24] 73% | residual activity [25] 94% | residual activity [26] 100% | residual activity [27] 100% | residual activity [28] 88% | residual activity [29] 100% | residual activity [30] 83% | residual activity [31] 95% | residual activity [32] 98% | inhibition [33] 26.5%

CNC(=O)Nc1ccc2c(c1)[C@@]1(CC2)OC(=O)N(CC(=O)N(Cc2ccc(F)cc2)[C@@H](C)C(F)(F)F)C1=O [A-486]
inactive: inhibition [1] -10% | inhibition [2] 4% | inhibition [3] 7% | inhibition [4] 4% | residual activity [5] 73% | residual activity [6] 83% | residual activity [7] 86% | residual activity [8] 88% | residual activity [9] 100% | residual activity [10] 94% | residual activity [11] 100% | residual activity [12] 82% | residual activity [13] 88% | residual activity [14] 79% | residual activity [15] 100% | residual activity [16] 73% | residual activity [17] 91% | residual activity [18] 94% | residual activity [19] 99% | residual activity [20] 89% | residual activity [21] 95% | residual activity [22] 100% | residual activity [23] 89% | residual activity [24] 83% | residual activity [25] 100% | residual activity [26] 93% | residual activity [27] 100% | residual activity [28] 75% | residual activity [29] 88% | residual activity [30] 88% | residual activity [31] 100% | residual activity [32] 89% | inhibition [33] 10.2%
